# pIC50: −log10 of the molar value. Values joined by “and” are separate entries in the source; they are usually repeats but may differ in a detail not shown here. Equal values may be shown once.
# Target: T1, γ-secretase (Homo sapiens, UniProt P49768)
# T1 construct: uses a HEK293 membrane fraction as a source of γ-secretase; endogenous in cells; host or cells: HEK293 (microsomal membrane fraction, solubilised in 0.25% CHAPSO)
# Assay: in vitro assay of γ-secretase activity (HEK293 membrane fraction, recombinant APP substrate, Abeta ELISA)
# Format: biochemical
# Conditions: γ-secretase inhibition; HEK293 membrane fraction solubilized in 0.25% CHAPSO, recombinant human APP C-terminal 100 amino acids substrate, Abeta detected by ELISA
# Description: Description of 1γ-Secretase Assay The activity of test compounds can be evaluated in assays which measure the proteolytic cleavage of suitable substrates by γ-secretase activity. These can be cellular assays where e.g., a substrate of the γ-secretase is fused in its cytoplasmic domain to a transcription factor. Cells are transfected with this fusion gene and a reporter gene, e.g., firefly luciferase, which expression is enhanced by the transcription factor. Cleavage of the fused substrate by γ-secretase will lead to expression of the reporter gene which can be monitored in appropriate assays. The γ-secretase activity can also be determined in cell-free in vitro assays where e.g., a cell lysate containing the γ-secretase complex is incubated with a suitable APP-derived substrate which is cleaved to the Abeta peptides. The amount of produced peptides can be determined with specific ELISA assays. Cell lines of neuronal origin secrete Abeta peptides which can be measured with the specific ELISA assay. Treatment with compounds which inhibit γ-secretase leads to a reduction of secreted Abeta thus providing a measure of inhibition. The in vitro assay of γ-secretase activity uses a HEK293 membrane fraction as a source of γ-secretase and a recombinant APP substrate. Latter consist of the C-terminal 100 amino acids of human APP fused to a 6× Histidin tail for purification which is expressed in E. coli in a regulatable expression vector, e.g. pEt15. This recombinant protein corresponds to the truncated APP fragment which results after […] of the extracellular domain and which constitutes the γ-secretase substrate. The assay principle is described in Li Y M et al, PNAS 97(11), 6138-6143 (2000). Hek293 cells are mechanically disrupted and the microsomal fraction is isolated by differential centrifugation. The membranes are solubilized in detergent (0.25% CHAPSO) and incubated with the APP substrate. The Abeta peptides which are produced by γ-secretase cleavage of the substrate are detected by specific ELISA assays as described (Brockhaus M et al, Neuroreport 9(7), 1481-1486 (1998).
row,SMILES,pIC50
1,"C[C@H](OC(=O)NCCC(F)(F)C(F)(F)F)C(=O)N[C@@H]1C(=O)N(CCO)c2ccccc2-c2ccccc21 [Example 38, (3,3,4,4,4-Pentafluoro-butyl)-carbamic acid (S)-1-[(S)-5-(2-hydroxy-ethyl)-6-oxo-6,7-dihydro-5H-dibenzo[b,d]azepin-7-ylcarbamoyl]-ethyl ester]",7.92
2,"C[C@@](F)(C(=O)NCCC(F)(F)F)C(=O)N[C@@H]1C(=O)N(CCOCc2ccccc2)c2ccccc2-c2ccccc21 [Example 51, (R)—N—[(S)-5-(2-Benzyloxy-ethyl)-6-oxo-6,7-dihydro-5H-dibenzo[b,d]azepin-7-yl]-2-fluoro-2-methyl-N′-(3,3,3-trifluoro-propyl)-malonamide]",8.15
3,"C[C@@](F)(C(=O)NCC(F)(F)F)C(=O)N[C@@H]1C(=O)N(CCOCc2ccccc2)c2ccccc2-c2ccccc21 [Example 52, (R)—N—[(S)-5-(2-Benzyloxy-ethyl)-6-oxo-6,7-dihydro-5H-dibenzo[b,d]azepin-7-yl]-2-fluoro-2-methyl-N′-(2,2,2-trifluoro-ethyl)-malonamide]",8.00
4,"CC(O)(C(=O)NCCC(F)(F)C(F)(F)F)C(=O)N[C@@H]1C(=O)N(CCOCc2ccccc2)c2ccccc2-c2ccccc21 (stereo partly drawn) [Example 55, N—[(S)-5-(2-Benzyloxy-ethyl)-6-oxo-6,7-dihydro-5H-dibenzo[b,d]azepin-7-yl]-2-hydroxy-2-methyl-N′-(3,3,4,4,4-pentafluoro-butyl)-malonamide]",7.92
5,"C[C@@](O)(C(=O)NCC(F)(F)F)C(=O)N[C@@H]1C(=O)N(CCOCc2ccccc2)c2ccccc2-c2ccccc21 [Example 57, (R)—N—[(S)-5-(2-Benzyloxy-ethyl)-6-oxo-6,7-dihydro-5H-dibenzo[b,d]azepin-7-yl]-2-hydroxy-2-methyl-N′-(2,2,2-trifluoro-ethyl)-malonamide]",7.05
6,"C[C@](O)(C(=O)NCC(F)(F)F)C(=O)N[C@@H]1C(=O)N(CCOCc2ccccc2)c2ccccc2-c2ccccc21 [Example 58, (S)—N—[(S)-5-(2-Benzyloxy-ethyl)-6-oxo-6,7-dihydro-5H-dibenzo[b,d]azepin-7-yl]-2-hydroxy-2-methyl-N′-(2,2,2-trifluoro-ethyl)-malonamide]",8.10
7,"CC(O)(C(=O)NCCC(F)(F)F)C(=O)N[C@@H]1C(=O)N(CCOCc2ccccc2)c2ccccc2-c2ccccc21 (stereo partly drawn) [Example 63, N—[(S)-5-(2-Benzyloxy-ethyl)-6-oxo-6,7-dihydro-5H-dibenzo[b,d]azepin-7-yl]-2-hydroxy-2-methyl-N′-(3,3,3-trifluoro-propyl)-malonamide]",8.70
8,"COCCN1C(=O)[C@@H](NC(=O)C(C)(C)C(=O)NCC(F)(F)C(F)(F)F)c2ccccc2-c2ccccc21 [Example 67, N—[(S)-5-(2-Methoxy-ethyl)-6-oxo-6,7-dihydro-5H-dibenzo[b,d]azepin-7-yl]-2,2-dimethyl-N′-(2,2,3,3,3-pentafluoro-propyl)-malonamide]",8.30
9,"COCCN1C(=O)[C@@H](NC(=O)C(OC)C(=O)NCC(F)(F)C(F)(F)F)c2ccccc2-c2ccccc21 (stereo partly drawn) [Example 68, 2-Methoxy-N—[(S)-5-(2-methoxy-ethyl)-6-oxo-6,7-dihydro-5H-dibenzo[b,d]azepin-7-yl]-N′-(2,2,3,3,3-pentafluoro-propyl)-malonamide]",8.05
10,"CC(C)(C(=O)NCC(F)(F)C(F)(F)F)C(=O)N[C@@H]1C(=O)N(CCOc2ccc(F)cc2)c2ccccc2-c2ccccc21 [Example 69, N-{(S)-5-[2-(4-Fluoro-phenoxy)-ethyl]-6-oxo-6,7-dihydro-5H-dibenzo[b,d]azepin-7-yl}-2,2-dimethyl-N′-(2,2,3,3,3-pentafluoro-propyl)-malonamide]",8.22
11,"CC(C)OCCN1C(=O)[C@@H](NC(=O)C(C)(C)C(=O)NCC(F)(F)C(F)(F)F)c2ccccc2-c2ccccc21 [Example 70, N—[(S)-5-(2-Isopropoxy-ethyl)-6-oxo-6,7-dihydro-5H-dibenzo[b,d]azepin-7-yl]-2,2-dimethyl-N′-(2,2,3,3,3-pentafluoro-propyl)-malonamide]",8.15
12,"CCOCCN1C(=O)[C@@H](NC(=O)C(C)(C)C(=O)NCC(F)(F)C(F)(F)F)c2ccccc2-c2ccccc21 [Example 71, N—[(S)-5-(2-Ethoxy-ethyl)-6-oxo-6,7-dihydro-5H-dibenzo[b,d]azepin-7-yl]-2,2-dimethyl-N′-(2,2,3,3,3-pentafluoro-propyl)-malonamide]",8.22
13,"CC(C)(C(=O)NCC(F)(F)C(F)(F)F)C(=O)N[C@@H]1C(=O)N(CC(O)C(F)(F)F)c2ccccc2-c2ccccc21 (stereo partly drawn) [Example 72, 2,2-Dimethyl-N—[(S)-6-oxo-5-(3,3,3-trifluoro-2-hydroxy-propyl)-6,7-dihydro-5H-dibenzo[b,d]azepin-7-yl]-N′-(2,2,3,3,3-pentafluoro-propyl)-malonamide]",9.00

# The next lines start with the values.
row,pIC50,SMILES
1,7.85,"C[C@H](OC(=O)NCC(F)(F)F)C(=O)N[C@@H]1C(=O)N(CCO)c2ccccc2-c2ccccc21 [Example 48, (2,2,2-Trifluoro-ethyl)-carbamic acid (S)-1-[(S)-5-(2-hydroxy-ethyl)-6-oxo-6,7-dihydro-5H-dibenzo[b,d]azepin-7-ylcarbamoyl]-ethyl ester]"
2,6.80,"C[C@](F)(C(=O)NCC(F)(F)F)C(=O)N[C@@H]1C(=O)N(CCO)c2ccccc2-c2ccccc21 [Example 49, (S)-2-Fluoro-N—[(S)-5-(2-hydroxy-ethyl)-6-oxo-6,7-dihydro-5H-dibenzo[b,d]azepin-7-yl]-2-methyl-N′-(2,2,2-trifluoro-ethyl)-malonamide]"
3,7.80,"C[C@](F)(C(=O)NCCC(F)(F)C(F)(F)F)C(=O)N[C@@H]1C(=O)N(CCO)c2ccccc2-c2ccccc21 [Example 50, (S)-2-Fluoro-N—[(S)-5-(2-hydroxy-ethyl)-6-oxo-6,7-dihydro-5H-dibenzo[b,d]azepin-7-yl]-2-methyl-N′-(3,3,4,4,4-pentafluoro-butyl)-malonamide]"
4,8.05,"C[C@@](F)(C(=O)NCC(F)(F)F)C(=O)N[C@@H]1C(=O)N(CCO)c2ccccc2-c2ccccc21 [Example 53, (R)-2-Fluoro-N—[(S)-5-(2-hydroxy-ethyl)-6-oxo-6,7-dihydro-5H-dibenzo[b,d]azepin-7-yl]-2-methyl-N′-(2,2,2-trifluoro-ethyl)-malonamide]"
5,8.10,"C[C@@](F)(C(=O)NCCC(F)(F)F)C(=O)N[C@@H]1C(=O)N(CCO)c2ccccc2-c2ccccc21 [Example 54, (R)-2-Fluoro-N—[(S)-5-(2-hydroxy-ethyl)-6-oxo-6,7-dihydro-5H-dibenzo[b,d]azepin-7-yl]-2-methyl-N-(3,3,3-trifluoro-propyl)-malonamide]"
6,8.70,"CC(O)(C(=O)NCCC(F)(F)C(F)(F)F)C(=O)N[C@@H]1C(=O)N(CCO)c2ccccc2-c2ccccc21 (stereo partly drawn) [Example 56, 2-Hydroxy-N—[(S)-5-(2-hydroxy-ethyl)-6-oxo-6,7-dihydro-5H-dibenzo[b,d]azepin-7-yl]-2-methyl-N′-(3,3,4,4,4-pentafluoro-butyl)-malonamide]"
7,6.72,"C[C@@](O)(C(=O)NCC(F)(F)F)C(=O)N[C@@H]1C(=O)N(CCO)c2ccccc2-c2ccccc21 [Example 59, (R)-2-Hydroxy-N—[(S)-5-(2-hydroxy-ethyl)-6-oxo-6,7-dihydro-5H-dibenzo[b,d]azepin-7-yl]-2-methyl-N′-(2,2,2-trifluoro-ethyl)-malonamide]"
8,8.40,"C[C@](O)(C(=O)NCC(F)(F)F)C(=O)N[C@@H]1C(=O)N(CCO)c2ccccc2-c2ccccc21 [Example 60, (S)-2-Hydroxy-N—[(S)-5-(2-hydroxy-ethyl)-6-oxo-6,7-dihydro-5H-dibenzo[b,d]azepin-7-yl]-2-methyl-N′-(2,2,2-trifluoro-ethyl)-malonamide]"
9,8.00,"CC(O)(C(=O)NCCC(F)(F)F)C(=O)N[C@@H]1C(=O)N(CCO)c2ccccc2-c2ccccc21 (stereo partly drawn) [Example 64, 2-Hydroxy-N—[(S)-5-(2-hydroxy-ethyl)-6-oxo-6,7-dihydro-5H-dibenzo[b,d]azepin-7-yl]-2-methyl-N′-(3,3,3-trifluoro-propyl)-malonamide]"

# Tested on: not given
# Assay: not given
# Conditions: not given
row,SMILES,melting point
1,"C[C@H](OC(=O)NCCC(F)(F)C(F)(F)F)C(=O)N[C@@H]1C(=O)N(CCO)c2ccccc2-c2ccccc21 [Example 38, (3,3,4,4,4-Pentafluoro-butyl)-carbamic acid (S)-1-[(S)-5-(2-hydroxy-ethyl)-6-oxo-6,7-dihydro-5H-dibenzo[b,d]azepin-7-ylcarbamoyl]-ethyl ester]",181 to 184 °C
2,"CC(O)(C(=O)NCCC(F)(F)F)C(=O)N[C@@H]1C(=O)N(CCO)c2ccccc2-c2ccccc21 (stereo partly drawn) [Example 64, 2-Hydroxy-N—[(S)-5-(2-hydroxy-ethyl)-6-oxo-6,7-dihydro-5H-dibenzo[b,d]azepin-7-yl]-2-methyl-N′-(3,3,3-trifluoro-propyl)-malonamide]",61 to 69 °C and 59 to 62 °C and 64 to 71 °C
